Key:
[1] = tested on: heterozygous reeler mice (HRM); test: Prepulse inhibition of startle (PPI) in heterozygous reeler mice; format: in vivo, mouse; settings: for auditory PPI deficit in HRM: heterozygous reeler mice, subcutaneous, imidazenil 0.3, 0.6 mg/kg, 115 db startle, 75 or 80 db prepulse
Text: (§1) The startle apparatus (SR-Lab, San Diego Instruments) consisted of a Plexiglas cylinder resting on a Plexiglas frame within a ventilated soundproof enclosure. Acoustic noise bursts were presented by. speaker 24 cm above the animal. and a piezo-electric device transduced any consequent motion (flinch) within the cylinder. Two stimulus trial types 1) 115 db startle stimulus only; or 2) 115 db stimulus preceded by a 75 or 80 db prepulse 100 msec before startle simulut onset were randomly presented with a mean intertrial interval of 20 sec. Stimuli were 30 msec in duration and were presented over a constant 65 db white noise background also present during a 5-min adaptation period.
(§2) Mean peak amplitude of the flinch response within a 200 msec window following presentation of the 115 db stimulus was calculated separately for each type of startle trial. Ratios reflecting the amount of inhibition due to the prepulse were calculated by dividing the difference between mean amplitude for startle and prepulse trials by the mean for the startle trials. PPI data are commonly presented in this ratio form to control for overall level of the startle reflex itself.
Imidazenil or alprazolam was dissolved in DMSO, combined with oil, and injected subcutaneously at a volume of 0.1 ml/10 gm of body weight. The amount of DMSO was approximately 1% of total volume. Vehicle was prepared similarly and vehicle or drug was administered in counterbalanced order using a within-subject design. Following drug administration, the mouse was placed in an isolated cage for 10-15 min before being placed in the startle apparatus. Animals were tested between 11:00 hr and 15:00 hr.

[2] = FIG. 1 dose-response comparison; cited from earlier work
wild-type mice (WTM) = test: Prepulse inhibition of startle (PPI) in wild-type mice; format: in vivo, mouse; settings: subcutaneous, 115 db startle, 75 or 80 db prepulse
Text: as §1, §2
Imidazenil or alprazolam was dissolved in DMSO, combined with oil, and injected subcutaneously at a volume of 0.1 ml/10 gm of body weight. The amount of DMSO was approximately 1% of total volume. […]

[3] = tested on: benzodiazepines binding sites; settings: cited from earlier work
patas monkeys = settings: cited from earlier work
[4] = in nonhuman primates; cited from earlier work
GABAA receptors = settings: cited from earlier work
rats = settings: doses up to 60-fold greater than doses producing anxiolytic and anticonvulsant actions; cited from earlier work

| SMILES | auditory PPI deficit in HRM [1] | sedation, amnesia, tolerance and dependence liability relative to doses with anxiolytic and anticonvulsant (therapeutic) actions [2] | PPI of WTM (wild-type mice (WTM)) | affinity for benzodiazepines binding sites [3] | overall startle level (sedative effect) ([1]; doses of imidazenil (0.3, 0.6 mg/kg) that correct the PPI deficit in HRM) | antagonism of sedative and amnestic actions of alprazolam (patas monkeys; monkeys, doses up to 60-fold greater than doses producing anxiolytic and anticonvulsant actions) | tolerance to the effects during treatment (patas monkeys; patas monkeys, seventeen day treatment) | T 1/2 (clearance rate) [4] | action on GABAA alpha1 subunit (GABAA receptors; GABAA receptors containing alpha1 subunit) | efficacy at GABAA receptor subtypes (GABAA receptors; at least eight subtypes of GABAA receptors tested) | intensity of GABA-gated Cl- currents (GABAA receptors) | antagonism of sedative and amnestic actions of alprazolam (rats) |
| --- | --- | --- | --- | --- | --- | --- | --- | --- | --- | --- | --- | --- |
| Cc1nnc2n1-c1ccc(Cl)cc1C(c1ccccc1)=NC2 [alprazolam, 8chloro-1-methyl-6-phenyl-4-[1,2,4]triazolo[4,3a][1-4]benzodiazepine, reference compound] | failed to revert the PPI deficit in HRM | appear with doses that are very close to those that cause anxiolytic and anticonvulsant actions | decreased PPI in WTM |  |  |  |  |  |  |  |  |  |
| NC(=O)c1ncn2c1CN=C(c1ccccc1Br)c1cc(F)ccc1-2 [imidazenil, 6-(2 bromophenyl)-8-fluoro-4H-imidazo[1,5a][1,4]benzodiazepine-3-carboxamide] | corrected the auditory PPI deficit in HRM | virtually undetectable | no primary effects on the PPI of WTM | high affinity | fail to change the overall startle level | antagonizes the sedative and amnestic actions of alprazolam | no tolerance | > 6 h | does not act on GABAA α1 subunit | partial agonist | never maximizes the intensity of GABA-gated Cl^− currents | antagonizes the sedative and amnestic actions of alprazolam |
